Source: patent publication US20160361258A1 (priority 2015, published 2016)

What was measured:
[1] = prior art U.S. Pat. No. 5,880,117; humans; cited from earlier work
in vivo = details: delivered sublingually or transmucosally
Description: 7-methoxyflavone is an aromatase inhibitor. Aromatase inhibitors work by inhibiting the action of the enzyme aromatase, which converts androgens into estrogens by a process called aromatization. 7-methoxyflavone is a compound having poor bioavailability of about 5% when ingested. According to an embodiment of the present invention, from about 5 mg to 50 mg, and preferably from about 20 mg to 30 mg of 7-methoxyflavone may be included in the formulations and dosage forms of the present invention, when delivered sublingually or transmucosally. […] According to an embodiment, the 7-methoxyflavone may be from a plant extract. 7-methoxyflavone has been found in Meliaceae and Rutaceae plants. According to an embodiment, the 7-methoxyflavone may therefore be from an extract containing at least 90% 7-methoxyflavone, standardized. Preferably, extract contains at least […] 7-methoxyflavone, standardized.
According to an embodiment of the present invention, from about 5 mg to 50 mg, and preferably from about 20 mg to 30 mg of 7,8-benzoflavone may be included in the formulations and dosage forms of the present invention, when delivered sublingually or transmucosally. According to an embodiment, the half-life of 7,8-benzoflavone is about 1-2 h when delivered sublingually or transmucosally.

[2] = in vivo; cited from earlier work

Compound	time of concentration peak after administration [1] [min]	half-life (in vivo) [h]	bioavailability [2]
C[C@]12CC[C@H]3[C@@H](CCC4=C[C@@H](O)CC[C@@]43C)[C@@H]1CC[C@@H]2O [4-androstene-3β, 17β-diol]	≤ 90	–	–
COc1ccc2c(=O)cc(-c3ccccc3)oc2c1 [7-methoxyflavone]	–	8 to 12	about 5%
O=c1cc(-c2ccccc2)oc2c1ccc1ccccc12 [7,8-benzoflavone, 2-phenyl-benzo(h)chromen-4-one]	–	1 to 2	–
